# Like-named read-outs stand apart in the source and are kept apart here.
# Experiments:
# Format in all cases: in vivo
# Oryza sativa (ORYSA) [1] = conditions: pre-emergence, crop plant compatibility, in comparison to untreated controls
# Procedure, shortened: (§1)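 Crop injury rated visually in percent against untreated plants roughly 3 weeks after treatment (0% no effect, 100% plants dead). Compounds, as WP or EC with 0.5% additive in 600 l/ha water, were applied to the covering soil right after sowing; greenhouse growth. Suffixes a, b, c denote different dosages.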
# Glycine max (GLXMA) [2] = conditions: pre-emergence, crop plant compatibility, in comparison to untreated controls
# Procedure, shortened: as §1
# Zea mays (ZEAMX) [3] = conditions: pre-emergence, crop plant compatibility, in comparison to untreated controls
# Procedure, shortened: as §1
# [4] = test system: Triticum aestivum (TRZAS); conditions: pre-emergence, crop plant compatibility, in comparison to untreated controls
# Procedure, shortened: as §1
# [5] = test system: Echinochloa crus-galli (ECHCG); assay: Pre-emergence herbicidal action against ECHCG; conditions: dosage 320 g/ha
# Procedure, shortened: (§2)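 Application rates ran to 320 g/ha or lower, with several dosages tested on the same weeds. The compound, as wettable powder or emulsion concentrate, is sprayed pre-emergence onto soil over sown seeds; greenhouse growth follows, and effect is rated visually after roughly 3 weeks.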
# [6] = test system: Matricaria inodora (MATIN); assay: Pre-emergence herbicidal action against MATIN; conditions: dosage 320 g/ha
# Procedure, shortened: as §2
# Glycine max (GLXMA) [7] = assay: Post-emergence crop plant compatibility, GLXMA; conditions: for Post-emergence action against GLXMA in %: effect in comparison to untreated controls
# Procedure: Seeds of monocotyledonous and dicotyledonous weeds and crop plants are placed in sandy loam in plastic or organic planting pots, covered with soil and cultivated in a greenhouse under controlled growth conditions. 2 to 3 weeks after sowing, the test plants are treated at the one-leaf stage. The compounds of the invention, formulated in the form of wettable powders (WP) or as emulsion concentrates (EC), are then sprayed onto the green parts of the plants as aqueous suspension or emulsion with addition of 0.5% additive at a water application rate of 600 l/ha (converted). After the test plants have been kept in the greenhouse under optimum growth conditions for about 3 weeks, the activity of the preparations is rated visually in comparison to untreated controls. For example, 100% activity=the plants have died, 0% activity=like control plants.
# The observed effects on selected crop plants are reported here in comparison to the untreated controls (values in %). The appendices “a”, “b” and “c” give differentiation by dosage used with otherwise the same crop plants tested.
# Oryza sativa (ORYSA) [8] = conditions: crop plant compatibility
# Procedure, shortened: (§3)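 Effects were read visually as % versus untreated controls (0% = no effect, 100% = death) about 3 weeks post-treatment. Application was a post-emergence spray at the one-leaf stage of WP/EC formulations with 0.5% additive at 600 l/ha. Different dosages are denoted a, b and c.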
# Zea mays (ZEAMX) [9] = conditions: for Post-emergence action against ZEAMX in %: crop plant compatibility, effect vs untreated controls
# Procedure, shortened: as §3
# [10] = test system: Triticum aestivum (TRZAS); conditions: crop plant compatibility, effect vs untreated controls
# Procedure, shortened: as §3
# [11] = test system: Abutilon theophrasti (ABUTH); assay: Pre-emergence herbicidal action against ABUTH; conditions: Dosage column 320 g/ha (title prints 3200 g/ha); scored visually after about 3 weeks; 100% = plants have died
# Procedure, shortened: as §2
# Lolium rigidum (LOLRI) [12] = assay: Pre-emergence herbicidal action against LOLRI; conditions: dosage 320 g/ha
# Procedure, shortened: as §2
# Setaria viridis (SETVI) [13] = assay: Post-emergence herbicidal action against SETVI; conditions: dosage 80 g/ha
# Procedure, shortened: (§4)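 Greenhouse plants sprayed at the one-leaf stage, 2–3 weeks after sowing, with WP or EC formulations plus 0.5% additive at 600 l/ha water. Activity rated visually after about 3 weeks versus untreated controls (100% = dead, 0% = like control), at 320 g/ha or lower.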
# [14] = test system: Pharbitis purpurea (PHBPU); assay: Pre-emergence herbicidal action against PHBPU; conditions: dosage 320 g/ha
# Procedure, shortened: as §2
# Brassica napus (BRSNW) = conditions: crop plant compatibility, in comparison to untreated controls
# Procedure, shortened: as §1
# [15] = test system: Pharbitis purpurea (PHBPU); assay: Post-emergence herbicidal action against PHBPU
# Procedure, shortened: as §4
# [16] = test system: Polygonum convolvulus (POLCO); assay: Pre-emergence herbicidal action against POLCO; conditions: dosage 320 g/ha
# Procedure, shortened: as §2
# Viola tricolor (VIOTR) [17] = assay: Pre-emergence herbicidal action against VIOTR; conditions: 320 g/ha, Viola tricolor
# Procedure, shortened: as §2
# [18] = test system: Amaranthus retroflexus (AMARE); assay: Pre-emergence herbicidal action against AMARE; conditions: 320 g/ha, visual scoring after about 3 weeks vs untreated controls
# Procedure, shortened: as §2
# [19] = test system: Echinochloa crus-galli (ECHCG); assay: Post-emergence herbicidal action against ECHCG
# Procedure, shortened: as §4
# Lolium rigidum (LOLRI) [20] = assay: Post-emergence herbicidal action against LOLRI; conditions: dosage 80 g/ha
# Procedure, shortened: as §4
# Setaria viridis (SETVI) [21] = assay: Pre-emergence herbicidal action against SETVI; conditions: dosage 320 g/ha
# Procedure, shortened: as §2
# Avena fatua (AVEFA) [22] = assay: Post-emergence herbicidal action against AVEFA; conditions: 80 g/ha, visual rating about 3 weeks after treatment
# Procedure, shortened: as §4
# [23] = test system: Alopecurus myosuroides (ALOMY); assay: Pre-emergence herbicidal action against ALOMY; conditions: 320 g/ha; scored visually after about 3 weeks; 100% = plants have died
# Procedure, shortened: as §2
# [24] = test system: Matricaria inodora (MATIN); assay: Post-emergence herbicidal action against MATIN; conditions: dosage 80 g/ha
# Procedure, shortened: as §4
# [25] = test system: Digitaria sanguinalis (DIGSA); assay: Pre-emergence herbicidal action against DIGSA; conditions: dosage 320 g/ha
# Procedure, shortened: as §2
# [26] = test system: Abutilon theophrasti (ABUTH); assay: Post-emergence herbicidal action against ABUTH; conditions: 80 g/ha, visual rating about 3 weeks after treatment vs untreated controls (100% = plants have died, 0% = like control plants)
# Procedure, shortened: as §4
# [27] = test system: Alopecurus myosuroides (ALOMY); assay: Post-emergence herbicidal action against ALOMY; conditions: 80 g/ha, visual rating about 3 weeks after treatment vs untreated controls (100% = plants have died, 0% = like control plants)
# Procedure, shortened: as §4
# Viola tricolor (VIOTR) [28] = assay: Post-emergence herbicidal action against VIOTR; conditions: 320 g/ha
# Procedure, shortened: as §4
# [29] = test system: Amaranthus retroflexus (AMARE); assay: Post-emergence herbicidal action against AMARE; conditions: 320 g/ha, visual rating about 3 weeks after treatment
# Procedure, shortened: as §4
# Avena fatua (AVEFA) [30] = assay: Pre-emergence herbicidal action against AVEFA; conditions: 320 g/ha, visual scoring after about 3 weeks vs untreated controls
# Procedure, shortened: as §2
# [31] = test system: Polygonum convolvulus (POLCO); assay: Post-emergence herbicidal action against POLCO; conditions: dosage 320 g/ha
# Procedure, shortened: as §4
# [32] = 80 g/ha, effect in comparison to untreated controls
# [33] = 320 g/ha, effect in comparison to untreated controls
# [34] = 20 g/ha, effect vs untreated controls
Pre-emergence action against ORYSA in % (Oryza sativa (ORYSA) [1]; 80 g/ha) [%],Pre-emergence action against ORYSA in % (Oryza sativa (ORYSA) [1]; 320 g/ha) [%],Pre-emergence action against GLXMA in % (Glycine max (GLXMA) [2]; 80 g/ha) [%],Pre-emergence action against ZEAMX in % (Zea mays (ZEAMX) [3]; 80 g/ha) [%],Pre-emergence action against TRZAS in % ([4]; 80 g/ha) [%],Post-emergence action against GLXMA in % (Glycine max (GLXMA) [7]; 80 g/ha) [%],Post-emergence action against ORYSA in % (Oryza sativa (ORYSA) [8]; [32]) [%],Post-emergence action against ORYSA in % (Oryza sativa (ORYSA) [8]; [33]) [%],Post-emergence action against ZEAMX in % (Zea mays (ZEAMX) [9]; 80 g/ha) [%],Post-emergence action against ZEAMX in % (Zea mays (ZEAMX) [9]; 320 g/ha) [%],Post-emergence action against TRZAS in % ([10]; 80 g/ha) [%],Post-emergence action against TRZAS in % ([10]; 320 g/ha) [%],Pre-emergence action against BRSNW in % (Brassica napus (BRSNW); 80 g/ha) [%],Pre-emergence action against TRZAS in % ([4]; 320 g/ha) [%],SMILES,Pre-emergence action against ECHCG in % [5] [%],Pre-emergence action against MATIN in % [6] [%],Pre-emergence action against POLCO in % [16] [%],Pre-emergence action against VIOTR in % (Viola tricolor (VIOTR) [17]) [%],Pre-emergence action against AMARE in % [18] [%],Pre-emergence action against SETVI in % (Setaria viridis (SETVI) [21]) [%],also measured
0,20,0,20,0,20,0,0,0,20,0,10,–,–,O=C(CSc1nn(-c2ccccn2)c(-c2cncc(F)c2)c1Br)NC1CC1 [Example I-201],90,80,–,–,–,–,Pre-emergence action against ABUTH [11]: 80%
10,–,–,10,10,–,0,–,–,–,–,–,20,–,CCOC(=O)CSc1nn(-c2ccccn2)c(-c2cncc(F)c2)c1Br [Example I-125],80,90,90,90,100,90,Pre-emergence action against LOLRI in % (Lolium rigidum (LOLRI) [12]): 80%; Post-emergence action against SETVI in % (Setaria viridis (SETVI) [13]): 80%; Pre-emergence action against PHBPU in % [14]: 90%; Post-emergence action against PHBPU in % ([15]; dosage 80 g/ha): 80%; Post-emergence action against ECHCG in % ([19]; dosage 80 g/ha): 90%; Post-emergence action against LOLRI in % (Lolium rigidum (LOLRI) [20]): 80%; Post-emergence action against GLXMA in % (Glycine max (GLXMA) [7]; 20 g/ha): 20%; Post-emergence action against AVEFA in % (Avena fatua (AVEFA) [22]): 90%; Pre-emergence action against ALOMY [23]: 80%; Post-emergence action against MATIN in % [24]: 80%; Post-emergence action against ORYSA in % (Oryza sativa (ORYSA) [8]; [34]): 0%; Post-emergence action against TRZAS in % ([10]; 20 g/ha): 10%; Pre-emergence action against DIGSA in % [25]: 100%; Post-emergence action against ABUTH in % [26]: 80%; Post-emergence action against ALOMY in % [27]: 90%
–,–,0,0,0,0,0,0,0,20,0,20,0,20,CCOC(=O)COc1nn(-c2ccccn2)c(-c2cncc(F)c2)c1Cl [Example I-147],–,–,90,90,90,–,"Post-emergence action against AMARE in % [29]: 90%; Post-emergence action against VIOTR in % (Viola tricolor (VIOTR) [28]): 90%; Pre-emergence action against AVEFA in % (Avena fatua (AVEFA) [30]): 80%; Pre-emergence action against GLXMA in % (Glycine max (GLXMA) [2]; 320 g/ha): 0%; Post-emergence action against PHBPU in % ([15]; dosage 320 g/ha): 90%; Post-emergence action against POLCO in % [31]: 90%; Post-emergence action against GLXMA (Glycine max (GLXMA) [7]; 320 g/ha, effect vs untreated controls): 10%"

# Further lines, the compound ahead of its results:
SMILES,Pre-emergence action against ORYSA in % (Oryza sativa (ORYSA) [1]; 80 g/ha) [%],Pre-emergence action against ORYSA in % (Oryza sativa (ORYSA) [1]; 320 g/ha) [%],Pre-emergence action against GLXMA in % (Glycine max (GLXMA) [2]; 80 g/ha) [%],Pre-emergence action against ZEAMX in % (Zea mays (ZEAMX) [3]; 80 g/ha) [%],Pre-emergence action against TRZAS in % ([4]; 80 g/ha) [%],Post-emergence action against GLXMA in % (Glycine max (GLXMA) [7]; 80 g/ha) [%],Post-emergence action against ORYSA in % (Oryza sativa (ORYSA) [8]; [32]) [%],Post-emergence action against ORYSA in % (Oryza sativa (ORYSA) [8]; [33]) [%],Post-emergence action against ZEAMX in % (Zea mays (ZEAMX) [9]; 80 g/ha) [%],Post-emergence action against ZEAMX in % (Zea mays (ZEAMX) [9]; 320 g/ha) [%],Post-emergence action against TRZAS in % ([10]; 80 g/ha) [%],Post-emergence action against TRZAS in % ([10]; 320 g/ha) [%],Pre-emergence action against BRSNW in % (Brassica napus (BRSNW); 80 g/ha) [%],Pre-emergence action against TRZAS in % ([4]; 320 g/ha) [%],Pre-emergence action against ECHCG in % [5] [%],Pre-emergence action against MATIN in % [6] [%],Pre-emergence action against POLCO in % [16] [%],Pre-emergence action against VIOTR in % (Viola tricolor (VIOTR) [17]) [%],Pre-emergence action against AMARE in % [18] [%],Pre-emergence action against SETVI in % (Setaria viridis (SETVI) [21]) [%],also measured
COC(=O)COc1nn(-c2ncccc2F)c(-c2cncc(F)c2)c1Br [Example I-49],10,20,–,0,0,–,10,–,10,–,10,–,10,0,–,–,–,–,–,–,"Pre-emergence action against ZEAMX in % (Zea mays (ZEAMX) [3]; 320 g/ha): 0%; Post-emergence action against GLXMA in % (Glycine max (GLXMA) [7]; 20 g/ha): 10%; Post-emergence action against ORYSA in % (Oryza sativa (ORYSA) [8]; [34]): 0%; Post-emergence action against ZEAMX in % (crop plant compatibility) (Zea mays (ZEAMX) [9]; 20 g/ha, ZEAMX, effect in comparison to untreated controls): 0%; Post-emergence action against TRZAS in % ([10]; 20 g/ha): 0%"
CCOC(=O)CCNC(=O)CSc1nn(-c2ccccn2)c(-c2cncc(F)c2)c1Br [Example I-82],0,–,0,–,0,0,20,–,–,–,–,–,20,20,90,90,–,–,–,90,Post-emergence action against VIOTR in % (Viola tricolor (VIOTR) [28]): 80%; Pre-emergence action against BRSNW in % (Brassica napus (BRSNW); 320 g/ha): 20%; Post-emergence action against ECHCG in % ([19]; dosage 320 g/ha): 80%

# — US20240041042A1, “1-(PYRIDYL)-5-AZINYLPYRAZOLE DERIVATIVES, AND THEIR USE FOR CONTROL OF UNDESIRED PLANT GROWTH” (Bayer Aktiengesellschaft, priority 2020, published 2024)
